Measurements: PubChem BioAssay (NCI)
Values joined by “and” are separate entries in the source; they are usually repeats but may differ in a detail not shown here. Equal entries are not always repeated.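 Five compound concentrations were applied to cells in 96-well plates for 48 hours; endpoints were derived by simple linear interpolation of the resulting dose-response curve. Here, GI50 denotes the concentration required for 50% inhibition of growth. TGI marks complete inhibition of growth.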

Assays:
Experiment in all cases: NCI anticancer screen, dose series, 48 h
[1] = test system: 786-0 renal
[2] = test system: A498 renal
[3] = test system: COLO 205 colon
[4] = test system: KM12 colon
[5] = test system: LOX IMVI melanoma
[6] = test system: MDA-MB-435
[7] = test system: T-47D breast
[8] = test system: NCI-H460 lung
[9] = test system: NCI-H522 lung
[10] = test system: MDA-MB-231 breast

| SMILES | GI50 [1] | TGI [1] | GI50 [2] [µM] | TGI [2] [µM] | GI50 [3] | TGI [3] | GI50 [4] | TGI [4] | GI50 [5] | TGI [5] [µM] | GI50 [6] [µM] | TGI [6] | GI50 [7] [µM] | TGI [7] [µM] | TGI [8] [µM] | TGI [9] | GI50 [10] [µM] | GI50 [8] | GI50 [9] | TGI [10] [µM] |
| --- | --- | --- | --- | --- | --- | --- | --- | --- | --- | --- | --- | --- | --- | --- | --- | --- | --- | --- | --- | --- |
| O=C(CI)NC1Oc2ccccc2-c2oc(=O)c(-c3ccccc3)cc21 (stereo not drawn) | 0.441 µM | 1.58 µM | 1.85 | 3.62 | 1.81 µM | 3.92 µM | 1.77 µM | 3.46 µM | 0.307 µM | 1.07 | 1.68 | 3.16 µM | 1.79 | 4.44 | – | – | – | – | – | – |
| CCCCCCCCCC[C@@H](O)[C@@H]1CC[C@H]([C@H]2CC[C@@H]([C@@H](O)CCCCCCCCCC[C@H]3CC(CC(C)=O)C(=O)O3)O2)O1 (stereo partly drawn) | – | 28.5 µM | – | 71.9 | – | 28.8 µM | – | – | – | 36 | – | – | – | – | > 100 | 13.2 µM | – | – | – | – |
| Cc1cc2c(cc1C)[n+](=O)c(C(=O)CC(=O)C(=O)Nc1c(C(C)C)cccc1C(C)C)c(C)n2[O-] | – | > 100 µM | – | > 100 | – | > 100 µM | – | > 100 µM | – | > 100 | – | – | – | – | > 100 | > 100 µM | – | – | – | – |
| Cc1ccc(S(=O)(=O)C(CC(=O)N2CCCC2)C(=O)c2ccccc2)cc1 (stereo not drawn) | – | > 100 µM | – | – | – | > 100 µM | – | > 100 µM | – | > 100 | – | – | – | – | > 100 | > 100 µM | – | – | – | – |
| N#CC1(Cc2ccc(N)cc2)c2ccccc2C=CN1C(=O)c1ccccc1 (stereo not drawn) | – | > 100 µM | – | > 100 | – | 85.7 µM | – | > 100 µM | – | > 100 | – | – | – | – | – | > 100 µM | – | – | – | – |
| COC(=O)C(=O)C(C(=O)C=C(C)C)C(=O)C(=O)Nc1cc(C(F)(F)F)ccc1Cl (stereo not drawn) | – | > 100 µM | – | > 100 | – | > 100 µM | – | > 100 µM | – | > 100 | – | – | – | – | > 100 | > 100 µM | – | – | – | – |
| COc1cccc(-c2cc(=O)c3cc(N(C)C)ccc3[nH]2)c1 | 0.0368 µM and 0.0096 µM | > 100 µM and 36.7 µM | – | – | 0.0283 µM and 0.0125 µM | 0.0875 µM and 0.0317 µM | 0.0334 µM and 0.0159 µM | 1.06 µM and 0.119 µM and 0.766 µM | 0.0354 µM and 0.012 µM | – | – | 0.0103 µM and 0.00361 µM | – | – | – | 0.0445 µM and 0.0205 µM | 0.0107 | 0.0342 µM and 0.0169 µM | 0.0184 µM and 0.00392 µM | – |
| COc1ccc(CNc2cc(OC)c(OC)c(OC)c2)cc1 | – | > 100 µM | – | > 83.4 | – | 9.34 µM | – | > 41.7 µM | – | > 100 | – | – | – | – | > 30 | 31 µM | – | – | – | – |
| O=C(N/N=C/c1ccccc1O)c1cccc([N+](=O)[O-])c1 | – | > 100 µM | – | > 100 | – | > 100 µM | – | > 100 µM | – | > 81.4 | – | – | – | – | > 100 | > 100 µM | – | – | – | – |
| O=C1C=CC(=Nc2ccc3c(c2)C(Br)c2ccccc2-3)O1 (stereo not drawn) | – | > 100 µM | – | – | – | > 100 µM | – | – | – | > 100 | – | – | – | – | > 100 | 81.7 µM | – | – | – | – |
| COC(=O)C[C@H]1CCC2(OCCO2)[C@]1(C)C(=O)OC | – | > 100 µM | – | > 100 | – | > 100 µM | – | > 100 µM | – | > 100 | – | – | – | – | > 100 | > 100 µM | – | – | – | – |
| N#CC(C(=N/O)/C(=N/O)C(C#N)c1ccc(Cl)cc1)c1ccc(Cl)cc1 (stereo not drawn) | – | > 100 µM | – | > 100 | – | > 100 µM | – | > 100 µM | – | > 100 | – | – | – | – | > 100 | – | – | – | – | – |
| CCOC(=O)NC(=O)c1cn(C2OC(COC(=O)CCCCCCCCC(=O)OCC3OC(n4cc(C(=O)NC(=O)OCC)c(=O)[nH]c4=O)C(O)C3O)C(O)C2O)c(=O)[nH]c1=O (stereo not drawn) | – | > 100 µM | – | > 100 | – | – | – | > 100 µM | – | > 100 | – | – | – | – | > 100 | – | – | – | – | – |
| CCN(CC)c1c(C(=O)/C=C/c2ccccc2)c(-c2ccccc2)nn(C)c1=O | – | > 100 µM | – | > 100 | – | > 100 µM | – | > 100 µM | – | 35.9 | – | – | – | – | > 100 | > 100 µM | – | – | – | – |
| CCCCCCCCCCCC(=O)CC(=O)c1c(O)cccc1O | – | 39.4 µM | – | – | – | 31.2 µM | – | 31.2 µM | – | 32 | – | – | – | – | 35.7 | 65.3 µM | – | – | – | – |
| O=C(CN1CCOCC1)Nc1ccc(Cn2nnc3c2C(=O)c2nnn(Cc4ccc(NC(=O)CN5CCOCC5)cc4)c2C3=O)cc1 | 1.94 µM | 5.27 µM | 1.97 | 4.39 | 0.199 µM | 0.463 µM | 0.959 µM | 5.23 µM | 0.275 µM | 1.35 | 0.177 | 0.329 µM | – | – | 5.48 | 0.587 µM | 0.26 | 0.378 µM | 0.191 µM | > 100 |
| COc1ccc2cc1Oc1ccc(cc1)CC1c3cc(c(OC)cc3CCN1C)Oc1c3c(cc4c1C(C2)N(C)CC4)OCO3 (stereo not drawn) | – | 25.3 µM | – | – | – | 18.4 µM | – | 27.2 µM | – | 4.72 | – | – | – | – | 28.4 | 20.3 µM | – | – | – | – |
| CCCCN(CCCC)C(=O)C(=O)C(C#N)c1ccc(C)cc1 (stereo not drawn) | – | > 100 µM | – | > 100 | – | – | – | > 100 µM | – | > 100 | – | – | – | – | > 100 | > 100 µM | – | – | – | – |
